Experimental data reported in patent US20230106592A1, “METHOD FOR TREATING CANCER USING A COMBINATION OF DNA DAMAGING AGENTS AND ATR INHIBITORS” (Vertex Pharmaceuticals Incorporated, priority 2015, published 2023).

Test: Phase I trial, combination with gemcitabine: pharmacokinetics
Assay type: in vivo, human
Conditions: combination with gem
Excerpt: Grade 3/4 treatment-related adverse events (AEs) occurred in 25 pts. DLTs occurred in 4 pts: 2 pts in DL4 (grade 3 thrombocytopenia; grade 3 elevated ALT and fatigue); 1 pt in DL5 (grade 3 elevated AST); 1 pt in DL6, (grade 3 elevated AST, ALT and grade 2 elevated ALP). The maximum tolerated dose was not reached but dose escalation was stopped at DL10 per investigator recommendation. […] The primary tumors in these four patients were breast cancer, head and neck cancer, NSCLC, and carcinoma of unknown primary origin. A pt with breast cancer in DL8 achieved PR at the 1st assessment and the pt remains on trial >133 days. Two (2) pts had prolonged stable disease (SD) responses. The tumor response and duration of progression free survival (PFS) are shown in FIGS. 16 and 17, respectively. For many patients, the duration of PFS extended beyond the 12-week primary endpoint. […] Progression-free survival (PFS) of 415 days in 1 patient with renal cancer(papillary carcinoma) and >191 days (pt with GIST) were observed.

For CNCc1ccc(-c2cc(-c3nc(-c4ccc(S(=O)(=O)C(C)C)cc4)cnc3N)on2)cc1 [Compound A-2], the half-life (both sexes, human, in vivo, intravenous, across DLs, read-out: Terminal elimination half-life (converted)) was roughly 16 h and the “Exposure based on Cmax and AUC0-∞” value was “relatively linear”.
